Results from patent publication US20020198219A1, “2-pyridinamine compositions and related methods” (priority 2000, published 2002).

System: differentiated P19 neurons
Assay: Drug screening using differentiated P19 cell assay (neuroprotection against glutamate/glycine)
Format: cell-based, murine
Conditions: for IC50: dose response 0.005-3 μM, 3 mM glutamate + 1 mM glycine, >1 = no maximum within highest dose (3 μM); for % neuroprotection (cell survival relative to control): screened at 1 micromolar, percentage of control cells surviving after 24 hours
Experimental: Commercially available chemical libraries (BioFocus PLC, UK) were screened using the methods described herein. The stock concentration of the compounds was about 400 μM in DMSO. The concentration of compounds used in the primary screen was 1 μM. […] Columns 4-11 received compounds at the following final concentrations (μM): 3, 1.2, 0.48, 0.192, 0.077, 0.031, 0.012 and 0.005. Each row contained a different compound for confirmation. Only rows B-G received compounds, and rows A and H remained untreated. Data are expressed as % neuroprotection=((compound-glutamate average)/(U0126-glutamate average)×100).
Only the 2-pyridinamines are the subject of this invention, although limited data for 4-pyrimidinamines are presented as well. “% Inh” indicates the percentage of control cells surviving after 24 hours, and represents the neuroprotective effect of the compounds screened at 1 micromolar concentration. IC50 relate to data from dose response experiments. […] ND refers to compounds not tested in dose-response experiments. […]

| Structure (SMILES) | IC50 [nM] | % neuroprotection (cell survival relative to control) [%] | IC50 (Mus musculus, Neuron) [nM] |
| --- | --- | --- | --- |
| Oc1ccc(-c2ccc(Nc3ccc(N4CCOCC4)cc3)nc2)cc1 [Cmpd 1] | 1080 | 84 | – |
| COc1ccc(Nc2ccc(-c3ccc(O)cc3)cn2)cc1 [Cmpd 2] | 560 | 94 | – |
| COc1ccc(Nc2ccc(-c3ccc(OC(F)(F)F)cc3)cn2)cc1 [Cmpd 3] | 510 | 94 | – |
| FC(F)(F)Oc1ccc(-c2ccc(Nc3ccc4c(c3)OCCO4)nc2)cc1 [Cmpd 4] | 380 | 86 | – |
| c1cc2c(cc1Nc1ccc(-c3ccc(N4CCOCC4)cc3)cn1)OCCO2 [Cmpd 5] | 284 | 80 | – |
| CCCCCOc1ccc(Nc2ccc(-c3ccc(N4CCOCC4)cc3)cn2)cc1 [Cmpd 6, 2-pyridinamine, 5-[4-(4-morpholinyl)phenyl]-N-[4-(pentyloxy)phenyl]-] | – | 83 | 220 |
| CCCCCOc1ccc(Nc2ccc(-c3ccc(N(C)C)cc3)cn2)cc1 [Cmpd 7, 2-pyridinamine, 5-[4-(dimethylamino)phenyl]-N-[4-(pentyloxy)phenyl]-] | – | 88 | 240 |
| COc1ccc(Nc2ccc(-c3ccc(N(C)C)cc3)cn2)cc1 [Cmpd 8, 2-pyridinamine, 5-[4-(dimethylamino)phenyl]-N-(4-methoxyphenyl)-] | – | 83 | 200 |
| CCCCCOc1ccc(Nc2ccc(-c3ccc(O)cc3)cn2)cc1 [Cmpd 9] | 560 | 84 | – |
| CCCCCOc1ccc(Nc2ccc(-c3ccc(CCC(=O)O)cc3)cn2)cc1 [Cmpd 10, benzenepropanoic acid, 4-[6-[[4-(pentyloxy)phenyl]amino]-3-pyridinyl]-] | – | 105 | 230 |
| COc1ccccc1-c1ccc(Nc2ccc3c(c2)OCCO3)nc1 [Cmpd 11] | 870 | 83 | – |
| CCOc1cccc(-c2ccc(Nc3cc(OC)c(OC)c(OC)c3)nc2)c1 [Cmpd 12, 2-pyridinamine, 5-(3-ethoxyphenyl)-N-(3,4,5-trimethoxyphenyl)-] | – | 87 | 47 |
| CCCCCOc1ccc(Nc2ccc(-c3ccc4c(c3)OCO4)cn2)cc1 [Cmpd 13, 2-pyridinamine, 5-(1,3-benzodioxol-5-yl)-N-[4-(pentyloxy)phenyl]-] | – | 98 | 260 |
| CCCCCOc1ccc(Nc2ccc(-c3ccccc3OC)cn2)cc1 [Cmpd 14, 2-pyridinamine, 5-(2-methoxyphenyl)-N-[4-(pentyloxy)phenyl]-] | – | 90 | 220 |
| FC(F)(F)Oc1ccc(-c2ccc(Nc3ccc(N4CCOCC4)cc3)nc2)cc1 [Cmpd 17] | – | 74 | – |
| COc1ccc(Nc2ccc(-c3cccc(OC(F)(F)F)c3)cn2)cc1 [Cmpd 18] | – | 74 | – |
| FC(F)(F)c1cc(-c2ccc(Nc3ccc(N4CCOCC4)cc3)nc2)cc(C(F)(F)F)c1 [Cmpd 21, 2-pyridinamine, 5-[3,5-bis(trifluoromethyl)phenyl]-N-[4-(4-morpholinyl)phenyl]-] | – | 95 | 210 |
| c1ccc2sc(-c3ccc(Nc4ccc(N5CCOCC5)cc4)nc3)cc2c1 [Cmpd 22, 2-pyridinamine, 5-benzo[b]thien-2-yl-N-[4-(4-morpholinyl)phenyl]-] | – | 98 | 90 |
| c1ccc2oc(-c3ccc(Nc4ccc(N5CCOCC5)cc4)nc3)cc2c1 [Cmpd 23] | 920 | 96 | – |

| Structure (SMILES) | IC50 [nM] | % neuroprotection (cell survival relative to control) [%] | IC50 (Mus musculus, Neuron) [nM] |
| --- | --- | --- | --- |
| COc1cc(-c2ccc(Nc3ccc(N4CCOCC4)cc3)nc2)cc(OC)c1OC [Cmpd 24] | 1760 | 94 | – |
| c1ccc2cc(-c3ccc(Nc4ccc(N5CCOCC5)cc4)nc3)ccc2c1 [Cmpd 25, 2-pyridinamine, N-[4-(4-morpholinyl)phenyl]-5-(2-naphthyl)-] | – | 100 | 84 |
| Clc1cccc(-c2ccc(Nc3ccc(N4CCOCC4)cc3)nc2)c1Cl [Cmpd 26] | > 1000 | 107 | – |
| c1ccc(Oc2ccccc2-c2ccc(Nc3ccc(N4CCOCC4)cc3)nc2)cc1 [Cmpd 28] | > 1000 | 83 | – |
| Clc1ccc(-c2ccc(Nc3ccc(N4CCOCC4)cc3)nc2)cc1 [Cmpd 29] | > 1000 | 82 | – |
| c1cc(N2CCOCC2)ccc1Nc1ccc(-c2ccc3c(c2)OCO3)cn1 [Cmpd 30] | > 1000 | 84 | – |
| Fc1ccc(-c2ccc(Nc3ccc(N4CCOCC4)cc3)nc2)cc1Cl [Cmpd 31] | > 1000 | 83 | – |
| COc1ccccc1-c1ccc(Nc2ccc(N3CCOCC3)cc2)nc1 [Cmpd 32] | > 1000 | 100 | – |
| FC(F)(F)Oc1cccc(-c2ccc(Nc3ccc(N4CCOCC4)cc3)nc2)c1 [Cmpd 33] | > 1000 | 89 | – |
| COc1ccc(Nc2ccc(-c3ccccc3OC)cn2)cc1 [Cmpd 35] | > 1000 | 82 | – |
| CCCCCOc1ccc(Nc2ccc(-c3cccc(N)c3)cn2)cc1 [Cmpd 36] | > 1000 | 98 | – |
| CCCCCOc1ccc(Nc2ccc(-c3cccnc3)cn2)cc1 [Cmpd 37] | – | 84 | – |
| CN(C)c1cccc(Nc2ccc(-c3ccc(N4CCN(C(=O)OC(C)(C)C)CC4)cc3)cn2)c1 [Cmpd 38] | – | 89 | – |
| COc1cc(Nc2ccc(-c3ccc(N4CCN(C(=O)OC(C)(C)C)CC4)cc3)cn2)cc(OC)c1OC [Cmpd 40] | – | 77 | – |
| CC(C)(C)OC(=O)N1CCN(c2ccc(-c3ccc(Nc4ccc5c(c4)OCCO5)nc3)cc2)CC1 [Cmpd 69] | – | 99 | – |
| Oc1ccc(-c2ccc(Nc3ccc4c(c3)OCCO4)nc2)cc1 [Cmpd 70] | – | 93 | – |
| COc1ccccc1-c1ccc(Nc2cc(OC)c(OC)c(OC)c2)nc1 [Cmpd 71] | – | 77 | – |
| CCOc1cccc(-c2ccc(Nc3ccc4c(c3)OCCO4)nc2)c1 [Cmpd 73] | – | 76 | – |
| COc1cc(Nc2ccc(-c3cccc(N(C)C)c3)cn2)cc(OC)c1OC [Cmpd 74] | – | 95 | – |

| Structure (SMILES) | IC50 [nM] | % neuroprotection (cell survival relative to control) [%] | IC50 (Mus musculus, Neuron) [nM] |
| --- | --- | --- | --- |
| CCCCCOc1ccc(Nc2ccc(-c3cccc(N(C)C)c3)cn2)cc1 [Cmpd 75] | – | 88 | – |
| CN(C)c1cccc(-c2ccc(Nc3ccc4c(c3)OCCO4)nc2)c1 [Cmpd 76] | – | 95 | – |
| CCn1c2ccccc2c2cc(Nc3ccc(-c4ccc(N5CCOCC5)cc4)cn3)ccc21 [Cmpd 77] | – | 82 | – |
| c1ccc(-c2ccc(-c3ccc(Nc4ccc(N5CCOCC5)cc4)nc3)cc2)cc1 [Cmpd 78] | 470 | 109 | – |
| COc1ccc(-c2ccc(Nc3ccc(N4CCOCC4)cc3)nc2)cc1OC [Cmpd 79] | 460 | 110 | – |
| Cc1ccc(-c2ccc(Nc3ccc(N4CCOCC4)cc3)nc2)cc1C [Cmpd 80] | 750 | 94 | – |
| c1ccc2cc(-c3ccc(Nc4ccc5c(c4)OCCO5)nc3)ccc2c1 [Cmpd 81] | 470 | 107 | – |
| COc1ccc(Nc2ccc(-c3ccccc3)cn2)cc1 [Cmpd 82] | – | 72 | – |
| COc1ccc(Nc2ccc(-c3ccc(N4CCOCC4)cc3)cn2)cc1 [Cmpd 83] | – | 71 | – |
| COc1cc(Nc2ccc(-c3ccc(C)c(C)c3)cn2)cc(OC)c1OC [Cmpd 84] | 490 | 85 | – |
| Cc1ccc(-c2ccc(Nc3ccc4c(c3)OCCO4)nc2)cc1C [Cmpd 85] | > 1000 | 86 | – |
| COc1ccc(Nc2ccc(-c3ccc(C)c(C)c3)cn2)cc1 [Cmpd 86] | > 1000 | 80 | – |
| Cc1ccc(-c2ccc(Nc3cccc(N(C)C)c3)nc2)cc1C [Cmpd 87] | > 1000 | 84 | – |
| C(=C\c1ccc(Nc2ccc3c(c2)OCCO3)nc1)/c1ccccc1 [Cmpd 88, 2-pyridinamine, N-(2,3-dihydro-1,4-benzodioxin-6-yl)-5-[(E)-2-phenylethenyl]-] | – | 85 | 230 |
| COc1ccc(Nc2ccc(C=Cc3ccccc3)cn2)c(C)c1 [Cmpd 90] | – | 73 | – |
| COc1ccc(Nc2cccc(-c3ccc4ccccc4c3)n2)cc1 [Cmpd 97] | – | 71 | – |
| COc1ccc(Nc2cccc(-c3ccc(N(C)C)cc3)n2)cc1 [Cmpd 98] | – | 71 | – |
| CCn1c2ccccc2c2cc(Nc3cccc(-c4cccc(N)c4)n3)ccc21 [Cmpd 99] | 330 | 105 | – |
| COc1ccc(Nc2cccc(-c3cccc(N)c3)n2)cc1 [Cmpd 100] | – | 79 | – |
